Reference: patent US8188284B2, “2-aminoquinolines” (Hoffman-La Roche Inc., priority 2008, dated 2012)

Key:
[1] = molecular target: T1, recombinant human 5-HT5A receptor (Homo sapiens, UniProt P47898); assay: [3H]LSD radioligand binding assay; conditions: [3H]LSD (approximately 1 nM), membranes from HEK-EBNA cells transiently expressing 5-HT5A receptors; Ki calculated from IC50 using the Cheng-Prussoff equation; read-out: Ki/nM 5-HT5A
T1 construct: expressed in transfected cells; host or cells: HEK-EBNA (Human Embryonic Kidney-EBNA) cells, transient cDNA expression, membranes
Experimental: A [^3H]LSD radioligand binding assay was used to determine the affinity of the compounds for the recombinant human 5-HT5A receptor, in membranes from transiently (cDNA) expressed 5-HT5A receptors in Human Embryonic Kidney-EBNA (HEK-EBNA) cells. Assay buffer consisted of Tris (50 mM) buffer containing 1 mM EGTA, 10 mM MgCl2 (pH 7.4) and 10 μM pargyline. The binding assay was carried out in 96-well-plates in the presence of [^3H]LSD (approximately 1 nM), approximately 2 μg/well of membrane protein, and 0.5 mg of Ysi-poly-1-lysine SPA beads in a final volume of 200 μl of buffer. Non-specific binding was defined using methiothepin 2 μM. Compounds were tested at 10 concentrations. All assays were conducted in duplicate and repeated at least two times. Assay plates were incubated for 120 min at room temperature before centrifugation. Bound ligand was determined using a Packard Topcount scintillation counter. IC50 values were calculated using a non-linear curve fitting program and Ki values calculated using the Cheng-Prussoff equation.

T1 sequence (P47898 whole entry): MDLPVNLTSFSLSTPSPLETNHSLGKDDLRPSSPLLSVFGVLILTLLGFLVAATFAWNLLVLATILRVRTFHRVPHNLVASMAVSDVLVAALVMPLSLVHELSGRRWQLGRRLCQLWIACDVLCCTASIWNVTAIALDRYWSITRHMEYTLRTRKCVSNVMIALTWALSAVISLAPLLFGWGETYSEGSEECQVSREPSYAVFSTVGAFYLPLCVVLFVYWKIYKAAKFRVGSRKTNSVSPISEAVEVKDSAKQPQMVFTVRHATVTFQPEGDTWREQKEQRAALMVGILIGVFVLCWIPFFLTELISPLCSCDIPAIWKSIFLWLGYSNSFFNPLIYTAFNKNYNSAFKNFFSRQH

Compound | Ki [1] | melting point
COc1cccc2c1C(Nc1ccc3cc(Nc4cccc(C(F)(F)F)n4)ccc3n1)CO2 (racemic) [Example 109, rac-N^2-(4-Methoxy-2,3-dihydro-benzofuran-3-yl)-N^6-(6-trifluoromethyl-pyridin-2-yl)-quinoline-2,6-diamine] | 26.1 nM | 132 °C
COc1cccc2c1C(Nc1ccc3cc(Nc4cc(C)on4)ccc3n1)CO2 (racemic) [Example 113, rac-N^2-(4-Methoxy-2,3-dihydro-benzofuran-3-yl)-N^6-(5-methyl-isoxazol-3-yl)-quinoline-2,6-diamine] | 14.4 nM | 222 °C
ON=C(c1ccc(F)cc1)c1ccc2nc(N[C@@H]3CCc4ccccc43)ccc2c1 [Example 56, (4-Fluoro-phenyl)-[2-((R)-indan-1-ylamino)-quinolin-6-yl]-methanone oxime] | 141 nM | 225.5 °C
OCCc1cccc(Nc2ccc3nc(N[C@@H]4CCc5ccccc54)ccc3c2)c1 [Example 83, 2-{3-[2-((R)-Indan-1-ylamino)-quinolin-6-ylamino]-phenyl}-ethanol] | 9.6 nM | 109 °C
CC(C)(C)n1nnc(Nc2ccc3nc(N[C@@H]4CCc5ccccc54)ccc3c2)n1 [Example 75, N^6-(2-tert-Butyl-2H-tetrazol-5-yl)-N^2—(R)-indan-1-yl-quinoline-2,6-diamine] | 25.9 nM | 146 °C
FC(F)(F)c1ccnc(Nc2ccc3nc(N[C@@H]4CCc5ccccc54)ccc3c2)n1 [Example 73, N^2—(R)-Indan-1-yl-N^6-(4-trifluoromethyl-pyrimidin-2-yl)-quinoline-2,6-diamine] | 11 nM | 165 °C
COc1ccccc1CNC(=O)c1ccc2nc(N[C@@H]3CCc4ccccc43)ccc2c1 [Example 55, 2-((R)-Indan-1-ylamino)-quinoline-6-carboxylic acid 2-methoxy-benzylamide] | 281 nM | 168 °C
c1cnc(Nc2ccc3nc(N[C@@H]4CCc5ccccc54)ccc3c2)nc1 [Example 66, N^2—(R)-Indan-1-yl-N6-pyrimidin-2-yl-quinoline-2,6-diamine] | 23.2 nM | 142 °C
Fc1ccc2c(c1)CCC2Nc1ccc2cc(Nc3nccc(C(F)(F)F)n3)ccc2n1 (racemic) [Example 103, rac-N^2-(5-Fluoro-indan-1-yl)-N^6-(4-trifluoromethyl-pyrimidin-2-yl)-quinoline-2,6-diamine] | 13.7 nM | 112 °C

Now those with a lower Ki [1], led by results:

Ki [1] | melting point | Compound
7.7 nM | 72 °C | Cc1cccc(Nc2ccc3nc(N[C@@H]4CCc5ccccc54)ccc3c2)n1 [Example 72, N^2—(R)-Indan-1-yl-N^6-(6-methyl-pyridin-2-yl)-quinoline-2,6-diamine]
3.5 nM | 109 °C | COc1cccc2c1C(Nc1ccc3cc(Nc4cc(C)on4)ccc3n1)CC2 (racemic) [Example 95, rac-N^2-(7-Methoxy-indan-1-yl)-N^6-(5-methyl-isoxazol-3-yl)-quinoline-2,6-diamine]
5.4 nM | 126 °C | COc1cccc2c1C(Nc1ccc3cc(Nc4cccc(C(F)(F)F)n4)ccc3n1)CC2 (racemic) [Example 91, rac-N^2-(7-Methoxy-indan-1-yl)-N^6-(6-trifluoromethyl-pyridin-2-yl)-quinoline-2,6-diamine]
8.7 nM | 127 °C | Cc1cc(Nc2ccc3nc(N[C@@H]4CCc5ccccc54)ccc3c2)no1 [Example 74, N^2—(R)-Indan-1-yl-N^6-(5-methyl-isoxazol-3-yl)-quinoline-2,6-diamine]
9.1 nM | 145 °C | COc1cccc2c1C(Nc1ccc3cc(Nc4nc(C)cc(C)n4)ccc3n1)CO2 (racemic) [Example 111, rac-N^6-(4,6-Dimethyl-pyrimidin-2-yl)-N^2-(4-methoxy-2,3-dihydro-benzofuran-3-yl)-quinoline-2,6-diamine]
